Read-outs that look alike come from different tables or passages of the source.
Key:
[1] = log P determination by LC-MS in the acidic range; assay type: physicochemical
Description: The LC-MS determination in the acidic range is effected at pH 2.7 using 0.1% aqueous formic acid and acetonitrile (contains 0.1% formic acid) as eluents, linear gradient from 10% acetonitrile to 95% acetonitrile. Alternatively, the determination is effected in the acidic range at pH 2.3 using 0.1% aqueous phosphoric acid and acetonitrile as eluents; linear gradient from 10% acetonitrile to 95% acetonitrile.

Myzus persicae [2] = assay: Myzus persicae - spray test; assay type: in vivo; details: application rate of 500 g/ha, after 6 days, sprayed Chinese cabbage leaf discs infested by all stages, 100% = all aphids killed; for pest or weed control at 500 g/ha: Myzus persicae, foliar, 144 h, read-out: efficacy in %
How it was run: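 Chinese cabbage leaf discs infested with all stages of green peach aphid sprayed with compound in acetone/DMF formulation with alkylaryl polyglycol ether emulsifier, diluted in emulsifier-containing water. Efficacy (% aphids killed) assessed after 6 days.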

Myzus persicae [3] = assay: Myzus persicae - sachet test; assay type: in vivo; details: 100% = all animals killed; for pest or weed control at 6 ppm / pest or weed control at 30 ppm: Myzus persicae, read-out: efficacy (kill in %)
How it was run: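 Green peach aphids feed through a sealed sachet on nutrient medium containing the water-diluted formulation (solvents: 2% N-methylpyrrolidone, 2% diacetone alcohol). Percent mortality read after the chosen time; 100% means all animals killed.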

[4] = pH 2.7, LC-MS in the acidic range, read-out: log P (acid)
[5] = pH 2.7, values given in the synthesis examples and NMR lists, read-out: HPLC-MS: log P
[6] = application rate of 6 ppm in nutrient medium
[7] = application rate of 30 ppm in nutrient medium
[8] = Table 2, compounds of the formula (I-2), acidic range pH 2.7 or pH 2.3

Row | chromatographic logP [1, 4] | chromatographic logP [1, 5] | log P (acid) [1, 8] | log P (acid) ([1]; LC-MS in the acidic range) | SMILES | pest or weed control at 500 g/ha (Myzus persicae [2]) [%] | pest or weed control at 6 ppm (Myzus persicae [3]; [6]) [%] | pest or weed control at 30 ppm (Myzus persicae [3]; [7]) [%] | efficacy in % (Myzus persicae [2]) [%] | efficacy (kill in %) (Myzus persicae [3]; [7]) [%] | efficacy (kill in %) (Myzus persicae [3]; [6]) [%]
1 | 1.49 | 1.49 | – | – | CCSCn1nc(NC(=O)c2cccnc2)cc1C [Compound I-1-242, N-{1-[(Ethylsulphanyl)methyl]-5-methyl-1H-pyrazol-3-yl}nicotinamide] | 100 | 100 | 100 | – | – | –
2 | – | – | 0.00 | – | COc1nc(NC(=O)c2cccnc2)nn1C [Compound I-2-16] | – | – | – | 90 | 100 | –
3 | – | – | – | 0.57 | Cc1cc(NC(=O)c2cccnc2)nn1CCC#N [Compound I-1-185] | – | – | – | 100 | 100 | 100
4 | – | – | – | 0.58 | Cc1cc(NC(=O)c2cccnc2)nn1Cn1cncn1 [Compound I-1-224] | – | – | – | 100 | 100 | 100
5 | – | – | – | 1.04 | Cn1nc(NC(=O)c2cccnc2)cc1C(F)F [Compound I-1-221] | – | – | – | 90 | 100 | 100
6 | – | – | – | 1.72 | Cc1cc(NC(=O)c2cccnc2)nn1Cn1nccc1C(F)(F)F [Compound I-1-227] | – | – | – | 90 | 100 | 100
7 | – | – | – | 0.77 | Cc1cc(NC(=O)c2cccnc2)nn1Cc1ncccn1 [Compound I-1-1] | – | – | – | 90 | 100 | 100
8 | – | – | – | 0.72 | Cc1c(F)c(NC(=O)c2cccnc2)nn1Cc1ncccn1 [Compound I-1-211] | – | – | – | 90 | 100 | 100
9 | – | – | – | 1.31 | C#CCn1nc(NC(=O)c2cccnc2)cc1CC [Compound I-1-40] | – | – | – | 90 | 100 | 100
10 | – | – | – | 1.32 | O=C(Nc1ccn(-c2ccccn2)n1)c1cccnc1 [Compound I-1-52] | – | – | – | 90 | 100 | 100
11 | – | – | – | 1.22 | CSCCn1nc(NC(=O)c2cccnc2)cc1C [Compound I-1-184] | – | – | – | 90 | 100 | 100
12 | – | – | – | 1.16 | Cc1ccn(Cn2nc(NC(=O)c3cccnc3)cc2C)n1 [Compound I-1-192] | – | – | – | 100 | 100 | 100
13 | – | – | – | 1.17 | Cc1ccnn1Cn1nc(NC(=O)c2cccnc2)cc1C [Compound I-1-220] | – | – | – | 90 | 100 | 100
14 | – | – | – | 0.62 | Cc1cc(NC(=O)c2cccnc2)nn1CN1CCCNC1=O [Compound I-1-149] | – | – | – | 90 | 100 | 100
15 | – | – | – | 0.84 | O=C(Nc1ccn(C(CF)CF)n1)c1cccnc1 [Compound I-1-65] | – | – | – | 90 | 100 | 100
16 | – | – | – | 1.05 | Cc1cc(NC(=O)c2cccnc2)nn1CC(F)F [Compound I-1-4] | – | – | – | 100 | 100 | 100
17 | – | – | – | 0.57 | O=C(Nc1ccn(Cc2ccccn2)n1)c1cccnc1 [Compound I-1-26] | – | – | – | 90 | 100 | 100
18 | – | – | – | 1.22 | O=C(Nc1ccn(Cc2ccc(Cl)nc2)n1)c1cccnc1 [Compound I-1-27] | – | – | – | 90 | 100 | 100
19 | – | – | – | 0.7 | Cc1cc(NC(=O)c2cccnc2)nn1CC#N [Compound I-1-11] | – | – | – | 80 | 100 | 100
20 | – | – | – | 0.98 | COC(=O)OCCn1nc(NC(=O)c2cccnc2)cc1C [Compound I-1-191] | – | – | – | 90 | 100 | 100
21 | – | – | – | 2.07 | Cc1cc(NC(=O)c2cccnc2)nn1Cc1ccc(Cl)s1 [Compound I-1-297] | – | – | – | 90 | 100 | –

Row | chromatographic logP [1, 4] | chromatographic logP [1, 5] | log P (acid) [1, 8] | log P (acid) ([1]; LC-MS in the acidic range) | SMILES | pest or weed control at 500 g/ha (Myzus persicae [2]) [%] | pest or weed control at 6 ppm (Myzus persicae [3]; [6]) [%] | pest or weed control at 30 ppm (Myzus persicae [3]; [7]) [%] | efficacy in % (Myzus persicae [2]) [%] | efficacy (kill in %) (Myzus persicae [3]; [7]) [%] | efficacy (kill in %) (Myzus persicae [3]; [6]) [%]
22 | – | – | – | 1.16 | Cc1cc(NC(=O)c2cccnc2)nn1CCCl [Compound I-1-33] | – | – | – | 100 | 100 | 100
23 | – | – | – | 1.59 | Cc1cc(NC(=O)c2cccnc2)nn1CC(C)C [Compound I-1-12] | – | – | – | 80 | 100 | 100
24 | – | – | – | 0.98 | C#CCN(C(=O)c1cccnc1)c1cc(C)n(Cc2ncccn2)n1 [Compound I-1-264] | – | – | – | 90 | 100 | 100
25 | – | – | – | 0.96 | Cc1ccnc(Cn2nc(NC(=O)c3cccnc3)cc2C)n1 [Compound I-1-31] | – | – | – | 90 | 100 | 100
26 | – | – | – | 0.65 | Cc1cc(N(C)C(=O)c2cccnc2)nn1C [Compound I-1-16] | – | – | – | 90 | 100 | –
27 | – | – | – | 0.76 | Cc1c(NC(=O)c2cccnc2)nn(Cc2ncccn2)c1C [Compound I-1-123] | – | – | – | 90 | 100 | 100
28 | – | – | – | 1.38 | Cc1cc(NC(=O)c2cccnc2)nn1CC(=O)C1(Cl)CC1 [Compound I-1-260] | – | – | – | 90 | 100 | 100
29 | – | – | 1.13 | – | COc1ccc([N+](=O)[O-])cc1Cn1cnc(NC(=O)c2cccnc2)n1 [Compound I-2-4] | – | – | – | 90 | 100 | –
30 | – | – | – | 0.69 | C#CCn1ccc(NC(=O)c2cccnc2)n1 [Compound I-1-54] | – | – | – | 90 | 100 | 100
31 | – | – | – | 0.13 | Cc1cc(NC(=O)c2cccnc2)nn1Cc1ccncc1 [Compound I-1-51] | – | – | – | 90 | 100 | 100
32 | 1.02 | 1.02 | – | – | Cc1cc(N(C)C(=O)c2cccnc2)nn1-c1ncccn1 [Compound I-1-25, N-Methyl-N-[5-methyl-1-(pyrimidin-2-yl)-1H-pyrazol-3-yl]nicotinamide] | 100 | 100 | 100 | – | – | –
33 | – | – | – | 1.04 | Cc1cc(NC(=O)c2cccnc2)nn1C(=O)CCS(C)(=O)=O [Compound I-1-268] | – | – | – | 100 | 100 | 100
34 | 0.3 | 0.3 | – | – | Cc1cc(NC(=O)c2cccnc2)n[nH]1 [Compound I-1-17, N-(5-Methyl-1H-pyrazol-3-yl)nicotinamide] | 90 | 100 | 100 | – | – | –
35 | – | – | – | 1.41 | C#CCn1nc(NC(=O)c2cccnc2)cc1C1CC1 [Compound I-1-43] | – | – | – | 90 | 100 | 100
36 | – | – | – | 1.55 | CSCCNC(=O)n1nc(NC(=O)c2cccnc2)cc1C [Compound I-1-167] | – | – | – | 90 | 100 | 100
37 | – | – | – | 1.91 | Cc1cc(NC(=O)c2cccnc2)nn1C(=O)NCCOC(F)(F)F [Compound I-1-172] | – | – | – | 90 | 100 | 100
38 | – | – | – | 1.74 | Cc1cc(NC(=O)c2cccnc2)nn1C1CCCC1 [Compound I-1-229] | – | – | – | 90 | 100 | 100
39 | – | – | – | 1.56 | CCCNC(=O)n1nc(NC(=O)c2cccnc2)cc1C [Compound I-1-314] | – | – | – | 90 | 100 | 100
40 | – | – | – | 2.02 | Cc1cc(NC(=O)c2cccnc2)nn1C1CCCCC1 [Compound I-1-204] | – | – | – | 90 | 80 | 80
41 | – | – | – | 1.83 | CCC(C)NC(=O)n1nc(NC(=O)c2cccnc2)cc1C (centres unmarked) [Compound I-1-317] | – | – | – | 90 | 100 | 100
42 | – | – | – | 0.93 | CCn1nc(NC(=O)c2cccnc2)cc1C [Compound I-1-38] | – | – | – | 100 | 100 | 100

Source: patent publication US20160106102A1, “KNOWN AND NEW HETEROCYCLIC COMPOUNDS AS PEST CONTROL AGENTS” (BAYER CROPSCIENCE AKTIENGESELLSCHAFT, priority 2013, published 2016)
